Source: ChEMBL document CHEMBL4725454, “Degradation of LRRK2 in the Treatment of Parkinson's Disease” (ACS Med Chem Lett, 2020)
pIC50: −log10 of the molar value.

Tests used:
[1] = molecular target: Protein cereblon/Leucine-rich repeat serine/threonine-protein kinase 2 (Mus musculus, UniProt Q5S006+Q8C7D2); assay: Protac activity at CRBN/LRRK2 in mouse MEF cells assessed as induction of LRRK2 degradation by measuring reduction in LRRK2 phosphorylation at S935 residue by Invitrogen Adapta assay; type: cell-based
[2] = molecular target: Protein cereblon/Leucine-rich repeat serine/threonine-protein kinase 2 (Mus musculus, UniProt Q5S006+Q8C7D2, G2019S); assay: Protac activity at CRBN/LRRK2 G2019S homozygous knock-in mutant in mouse MEF cells assessed as induction of LRRK2 degradation by measuring reduction in LRRK2 phosphorylation at S935 residue by Invitrogen Adapta assay; type: cell-based

CC1(Oc2ccc3[nH]nc(-c4cc(N5CCN(C(=O)CCOCCOCCNc6cccc7c6C(=O)N(C6CCC(=O)NC6=O)C7)CC5)ncn4)c3c2)CC1 (stereo unspecified)
pIC50 [1]: 8.59
pIC50 [2]: 8.65

CC1(Oc2ccc3[nH]nc(-c4cc(N5CCN(C(=O)CCOCCNc6cccc7c6C(=O)N(C6CCC(=O)NC6=O)C7)CC5)ncn4)c3c2)CC1 (stereo unspecified)
pIC50 [1]: 8.60
pIC50 [2]: 8.83

CC1(Oc2ccc3[nH]nc(-c4cc(N5CCN(C(=O)CCOCCOCCOCCOCCNc6cccc7c6C(=O)N(C6CCC(=O)NC6=O)C7=O)CC5)ncn4)c3c2)CC1 (stereo unspecified)
pIC50 [1]: 8.84
pIC50 [2]: 9.01

CC1(Oc2ccc3[nH]nc(-c4cc(N5CCN(C(=O)CCOCCNc6cccc7c6C(=O)N(C6CCC(=O)NC6=O)C7=O)CC5)ncn4)c3c2)CC1 (stereo unspecified)
pIC50 [1]: 8.80
pIC50 [2]: 8.97

CNc1nc(Nc2ccc(C(=O)N3CCN(C(=O)CCCCCCCCOc4cccc5c4C(=O)N(C4CCC(=O)NC4=O)C5=O)CC3)cc2OC)ncc1C(F)(F)F (stereo unspecified)
pIC50 [1]: 8.70
pIC50 [2]: 9.00

CC1(Oc2ccc3[nH]nc(-c4cc(N5CCN(C(=O)CCOCCOCCOCCOCCNc6cccc7c6C(=O)N(C6CCC(=O)NC6=O)C7)CC5)ncn4)c3c2)CC1 (stereo unspecified)
pIC50 [1]: 8.50
pIC50 [2]: 8.50

CC1(Oc2ccc3[nH]nc(-c4cc(N5CCN(C(=O)CCOCCOCCNc6cccc7c6C(=O)N(C6CCC(=O)NC6=O)C7=O)CC5)ncn4)c3c2)CC1 (stereo unspecified)
pIC50 [1]: 8.91
pIC50 [2]: 8.95

CNc1nc(Nc2ccc(C(=O)N3CCN(C(=O)CCOCCOCCOCCOCCNc4cccc5c4C(=O)N(C4CCC(=O)NC4=O)C5=O)CC3)cc2OC)ncc1C(F)(F)F (stereo unspecified)
pIC50 [1]: 8.40
pIC50 [2]: 8.70
